Laboratory results taken from US20070004724A1, “(+)-(2S,3s)-2-(3-chlorophenyl)-3,5,5-trimethyl-2-morpholinor for treating anxiety” (priority 2003, published 2007).
Where a name gives a salt, the structure may show the parent alone.

Key:
Male Sprague Dawley rats [1] = assay: Social interaction test in rats, chronic study; type: in vivo, rat; settings: for Number of line crossings: motor activity; for Number of line crossings / Time spent in active social interaction: average±s.e.
Protocol: (§1) Social Interaction Test in Rats [Animal Models for Predicting Clinical Efficacy of Anxiolytic Drugs: Social Behaviour. Neuropsychobiology. 13 (1-2) 55-62, 1985]
(§2) Male Sprague Dawley rats (350-400 g at day of test, Charles River, Italy) were individually housed for five days before the test session. The 15 minutes social interaction test was performed between 9:00 to 14:00. Pairs of rats, weight and treatment matched, were placed in the test arena under high light condition. Active social interaction (sniffing, following, grooming, biting, boxing, crawling over and under) and motor activity, in terms of line crossing were scored by an observer blind to the drug treatment. The animals were treated orally with vehicle (2 ml/kg) or with the hydrochloride salt of the compound of formula (I) at 3, 10 and 30 mg/kg, 45 minutes prior to the test (acute study), or for 20 days twice a day and with a final treatment given on day 21, the last treatment given 45 minutes before the test (chronic study). An additional group of rats (positive control group) received a single oral dose of chlordiazepoxide (CDP) 4 mg/kg 1 hour before testing.
The results of the chronic study are given below in Table 3 (values given as average±s.e.), with the data for social interaction also illustrated in FIG. 1.

[2] = target: T1, serotonin uptake, synaptosomes from rat hypothalamus (Rattus norvegicus, UniProt P31652); assay: In vitro synaptosomal uptake of [3H]-serotonin; type: biochemical
T1 construct: Synaptosomes for use in obtaining in vitro uptake data were prepared from hypothalamus or striatum; from tissue; host or cells: rat hypothalamus synaptosomes
Excerpt: Similarities and differences. Molecular Pharmacology, 21: p.

[3] = target: T2, dopamine (DA) uptake, synaptosomes from rat caudoputamen (Rattus norvegicus, UniProt P23977); assay: In vitro synaptosomal uptake of [3H]-dopamine; type: biochemical; settings: [3H]-dopamine uptake, mean ± SEM of 3 experiments
T2 construct: Synaptosomes for use in obtaining in vitro uptake data were prepared from hypothalamus or striatum; from tissue; host or cells: rat caudoputamen (striatum) synaptosomes
Protocol: In vitro uptake was determined, as reported previously, using synaptosomes prepared from rat caudoputamen (for dopamine uptake) and hypothalamus (for NA and serotonin uptake) using [^3H]-dopamine, [^3H]-NA and [^3H]-serotonin as transport substrates, respectively. See Eckhardt, S. B., R. A. Maxwell, and R. M. Ferris, A Structure-Activity Study of the Transport Sites for the Hypothalamic and Striatal Catecholamine Uptake Systems. Similarities and differences. Molecular Pharmacology, 21: p. 374-9, 1982.
Synaptosomes for use in obtaining in vitro uptake data were prepared from hypothalamus or striatum by gently homogenizing the tissue in a 0.3 M sucrose/25 mM Tris pH 7.4 buffer containing iproniazid phosphate to inhibit monoamine oxidase. The homogenate was centrifuged at 1100×g at 4° C. for 10 min and the supernatant was used for uptake studies. […] Under these conditions uptake was linear with respect to both for substrate and tissue (with <5% total substrate transported). Non-specific uptake was defined as uptake at 0° C. [^3H]-substrate, which had been transported into synaptosomes, was separated from free [^3H]-substrate by filtration over GF/B filters and washing with cold Krebs-Henseleit buffer. The filters were counted for tritum in a liquid scintillation spectrometer.

Male Sprague Dawley rats [4] = assay: Social interaction test in rats, acute study; type: in vivo; settings: acute rat social interaction study
Protocol: as §1, §2
The results for social interaction in the acute study are illustrated in FIG. 2.

CD-1 mice = assay: Light & dark box test in mice; type: in vivo; settings: 3 mg/kg oral, 30 minutes before test
Excerpt: Light & Dark Box Test in Mice [Costall B. Jones B J. Kelly […]. and Tomkins D M. Exploration of Mice in a Black and White Test Box: Validation as a Model of Anxiety. Pharmacology, Biochemistry & Behavior. 32 (3):777-85, 1989] The light-dark box test consists of a Perspex box which is divided into two compartments, two-thirds of which is painted white and the remaining third is painted black. Mice are able to move freely between the two compartments using a small gap in the wall separating the two compartments. The floor is marked with lines, which provided an index of motor activity of the animals (number of line crossings). A white light (60 W) is placed over the white compartment of the box to provide a brightly-lit area which the animals find aversive. Mice tend to escape from this area preferring to remain in the black area, returning only occasionally to explore the white area. […] CD-1 mice (25-30 g, Charles River, Italy) were placed individually into the centre of the white side of the black/white test box for the 5 min test period and the behaviour of the mice was recorded by remote video recording. Behaviour of the mice was assessed subsequently from the tape recordings by an observer who was unaware of the animals' treatment. Different parameters were assessed to estimate both the anxiolytic and the sedative effects of the compound tested. […]

[5] = system: cell-lines expressing human monoamine transporters; assay: Compound-induced cytotoxicity in the transporter cell-lines; type: cell-based; settings: at any of the concentrations causing reuptake inhibition
[6] = chronic study, at 3 and 10 mg/kg oral

T1 sequence (P31652 whole entry): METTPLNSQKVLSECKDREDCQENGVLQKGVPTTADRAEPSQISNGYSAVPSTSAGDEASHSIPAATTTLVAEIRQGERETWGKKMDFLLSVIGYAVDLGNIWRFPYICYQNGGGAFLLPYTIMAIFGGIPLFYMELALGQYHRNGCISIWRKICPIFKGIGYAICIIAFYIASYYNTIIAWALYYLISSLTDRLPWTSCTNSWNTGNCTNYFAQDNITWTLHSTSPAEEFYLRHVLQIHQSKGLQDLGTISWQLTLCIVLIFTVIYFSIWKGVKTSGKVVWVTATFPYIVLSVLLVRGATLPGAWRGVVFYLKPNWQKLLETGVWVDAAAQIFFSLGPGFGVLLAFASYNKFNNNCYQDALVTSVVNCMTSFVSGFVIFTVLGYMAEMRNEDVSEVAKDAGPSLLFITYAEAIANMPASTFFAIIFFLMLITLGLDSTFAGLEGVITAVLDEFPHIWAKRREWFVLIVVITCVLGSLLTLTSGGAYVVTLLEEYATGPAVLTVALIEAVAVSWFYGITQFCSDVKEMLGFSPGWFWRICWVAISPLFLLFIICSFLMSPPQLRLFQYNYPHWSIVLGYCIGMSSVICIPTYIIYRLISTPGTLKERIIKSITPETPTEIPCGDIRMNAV
T2 sequence (P23977 whole entry): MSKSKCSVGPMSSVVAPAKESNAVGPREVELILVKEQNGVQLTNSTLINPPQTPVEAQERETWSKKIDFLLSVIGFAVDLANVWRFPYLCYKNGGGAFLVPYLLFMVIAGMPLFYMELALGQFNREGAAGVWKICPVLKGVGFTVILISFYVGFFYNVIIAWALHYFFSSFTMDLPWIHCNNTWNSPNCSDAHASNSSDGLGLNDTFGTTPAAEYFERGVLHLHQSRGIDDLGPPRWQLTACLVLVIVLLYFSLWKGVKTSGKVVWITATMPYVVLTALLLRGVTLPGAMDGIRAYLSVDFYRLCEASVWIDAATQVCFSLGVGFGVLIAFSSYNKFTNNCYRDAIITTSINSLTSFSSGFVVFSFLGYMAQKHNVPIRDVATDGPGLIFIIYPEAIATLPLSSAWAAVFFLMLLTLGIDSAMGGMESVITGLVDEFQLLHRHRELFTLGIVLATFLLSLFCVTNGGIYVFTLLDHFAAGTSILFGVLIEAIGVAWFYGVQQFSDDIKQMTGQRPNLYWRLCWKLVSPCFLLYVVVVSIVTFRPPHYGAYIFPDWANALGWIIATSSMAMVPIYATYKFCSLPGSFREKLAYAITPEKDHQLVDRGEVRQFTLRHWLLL

`CNC1=Nc2ccc(Cl)cc2C(c2ccccc2)=[N+]([O-])C1` [CDP, chlordiazepoxide, reference compound] was tested, and the “Number of line crossings” value (Male Sprague Dawley rats [1]; positive control, single oral dose 4 mg/kg, n=14) was 560.1 ± 29.6, the “Time spent in active social interaction, % (change relative to vehicle)” value (Male Sprague Dawley rats [1]; positive control, single oral dose 4 mg/kg) was 53.2% and the “Time spent in active social interaction” value (Male Sprague Dawley rats [1]; positive control, single oral dose 4 mg/kg 1 hour before testing, n=14) was 124.4 ± 10.7 s.
For `C[C@@H]1NC(C)(C)CO[C@@]1(O)c1cccc(Cl)c1` [Formula (I), (+)-(2S,3S)-2-(3-chlorophenyl)-3,5,5-trimethyl-2-morpholinol], the IC50 [2] was over 30 µM, the “inhibition of serotonin uptake” value ([2]; at 30 μM) was “no inhibition” and the IC50 [3] was 9.3 ± 0.41 µM. The anxiogenic activity (Male Sprague Dawley rats [4]) was “lack of anxiogenic activity”.
For `C[C@@H]1NC(C)(C)CO[C@@]1(O)c1cccc(Cl)c1` [Formula (I). HCl, (+)-(2S,3S)-2-(3-chlorophenyl)-3,5,5-trimethyl-2-morpholinol hydrochloride], the “Time spent in active social interaction” value (Male Sprague Dawley rats [1]; chronic study, 3 mg/kg oral twice a day 20 days + day 21, 45 min before test, n=14) was 114.0 ± 11.5 s, the “Time spent in active social interaction” value (Male Sprague Dawley rats [1]; chronic study, 10 mg/kg oral twice a day 20 days + day 21, 45 min before test, n=10) was 126.4 ± 13.8 s and the “Time spent in active social interaction” value (Male Sprague Dawley rats [1]; chronic study, 30 mg/kg oral twice a day 20 days + day 21, 45 min before test, n=14) was 97.6 ± 8.7 s. The “effect on social interaction” value (Male Sprague Dawley rats [1]; chronic study, at 30 mg/kg oral) was “lack of effect on social interaction”, the “effect on locomotor activity” value (Male Sprague Dawley rats [1]; chronic study, at 30 mg/kg oral, compared to vehicle) was “significant reduction in locomotor activity” and the “anxiolytic-like effect in social interaction test” value (Male Sprague Dawley rats [1]; [6]) was “able to induce an anxiolytic-like effect”. For the same molecule, the “effect on locomotor activity” value (Male Sprague Dawley rats [1]; [6]) was “without any significant effects on locomotor activity”, the “Number of line crossings” value (Male Sprague Dawley rats [1]; chronic study, 3 mg/kg oral, n=14) was 587.0 ± 29.1 and the “Number of line crossings” value (Male Sprague Dawley rats [1]; chronic study, 10 mg/kg oral, n=10) was 571.0 ± 44.1. The “Number of line crossings” value (Male Sprague Dawley rats [1]; chronic study, 30 mg/kg oral, n=14) was 476.2 ± 42.6, the “anxiolytic-like effect in light & dark box test” value (CD-1 mice) was “able to induce an anxiolytic-like effect” and the cytotoxicity [5] was “No cytotoxicity was observed”.
